Entries after “also recorded” stand apart in the source; their conditions may differ.
Key:
Id1 and Id3 protein = experiment: Western blot for Id1 and Id3; format: cell-based
Protocol: Western Blot Analysis. Total cellular protein was prepared using RIPA buffer containing a protease inhibitor cocktail and protein concentration was measured using the BCA assay as described. In brief, protein was analyzed by SDS-PAGE, transferred to nitrocellulose (Schleicher and Schuell, Keene, N.H.). After blocking, the blots were incubated overnight at 4° C. with the appropriate primary antibody in Tris-buffered saline with 1% Tween (TBST) and 5% non-fat milk. Secondary antibodies were applied for 1 hour at room temperature. Specific proteins were detected using the enhanced chemiluminescence system (Amersham, Arlington Heights, Ill.). The primary antibodies that were used were rabbit monoclonal anti-pSmad 1/5/8 (Cell signaling Technology, Danvers Mass.) rabbit anti-actin, an affinity isolated antigen specific antibody (Sigma, Saint Louis, Mo.), rabbit monoclonal anti-Id1 and rabbit monoclonal anti-Id3 (Calbioreagents, San Mateo, Calif.).

[1] = test system: constitutively active alk6 (ca-alk6); experiment: BRE-luciferase with constitutively active alk6 in H1299 cells; format: cell-based; conditions: 1 μM antagonist
Protocol: To assess the effects of antagonists on a specific type I BMP receptor, 2 μg of constitutively active ca-alk3 and ca-alk6 expression vectors were co-transfected with the BRE-luciferase reporter into H1299 cells with Nucleofector II. Control cells were co-transfected with the pcDNA3 expression vector. After 48 hours the cells were treated with DMSO or a BMP receptor antagonist for 48 hours and luminescence was measured.

TGFβ receptor alk5 = target: T1, TGFβ receptor alk5 (Homo sapiens, UniProt P36897); conditions: compared with Dorsomorphin and LDN; cited from earlier work
T1 sequence (P36897 34-503): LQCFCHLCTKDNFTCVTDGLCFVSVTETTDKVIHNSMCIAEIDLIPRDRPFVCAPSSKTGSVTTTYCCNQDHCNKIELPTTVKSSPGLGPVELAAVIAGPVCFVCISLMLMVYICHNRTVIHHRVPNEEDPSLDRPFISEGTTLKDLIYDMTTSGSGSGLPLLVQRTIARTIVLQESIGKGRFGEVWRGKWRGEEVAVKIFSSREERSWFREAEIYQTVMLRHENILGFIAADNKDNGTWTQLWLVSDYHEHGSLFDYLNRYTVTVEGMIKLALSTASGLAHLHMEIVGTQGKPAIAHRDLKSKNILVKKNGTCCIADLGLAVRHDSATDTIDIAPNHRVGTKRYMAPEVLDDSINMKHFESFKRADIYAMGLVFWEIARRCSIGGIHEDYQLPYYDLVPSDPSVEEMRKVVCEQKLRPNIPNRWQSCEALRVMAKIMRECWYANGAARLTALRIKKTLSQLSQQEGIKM

A549 cells = experiment: Cell counts after 7 days; format: cell-based; conditions: DMEM 5% FCS, 10 μM Dorsomorphin or 1 μM DMH1, DMH2, LDN
Protocol: (§1) Cell Counts. A549 and H1299 cells were plated into 6 well plates with 100,000 cells per well. Cells were treated with DMSO or a BMP receptor antagonist for 7 days. The cells were detached with trypsin, stained with trypan blue, and the number of live cells counted using a hemacytometer.

H1299 cells [2] = experiment: Cell counts after 7 days; format: cell-based
Protocol: as §1

[3] = test system: Id1, Id2, and Id3 expression; experiment: Quantitative RT-PCR for Id family members; format: cell-based; conditions: A549 and H1299 cell lines; 10 μM Dorsomorphin, 1 μM DMH1 or DMH2; 48 hours
Protocol: Quantification of Gene Expression. RNA was extracted using the RNeasy kit as per the manufacturer's instructions (Qiagen, Valencia, Calif.). DNAase was used to remove any DNA contamination. cDNA was generated using Advantage RT for PCR kit (BD BiosciencesClontech, Palo Alto, Calif.). Quantitative PCR was performed with the Stratagene Mx3005p (Agilent Technologies) and predesigned validated Taq-Man gene expression assays according to the manufacturer's specifications (Applied Biosystems, Foster City, Calif.). Reference numbers used are: GAPDH (Hs99999905_m1), ACVRL1 (alk1) (Hs00163543_m1), ACVR1A (alk2) (Hs00153836_m1), BMR1A (alk3) (Hs00831730_s1), BMPR1B (alk6) (Hs00176144_m1), Id1 (Hs00357821_g1), Id2 (Hs00747379_m1), and Id3 (Hs00171409-m1). Negative control included all reagents except cDNA. Expression was normalized to GAPDH using the formula […].

[4] = target: platelet-derived growth factor receptor-β (Homo sapiens, UniProt P09619); conditions: compared with Dorsomorphin and LDN; cited from earlier work
Sequence of platelet-derived growth factor receptor-β (P09619 33-1106, species assumed): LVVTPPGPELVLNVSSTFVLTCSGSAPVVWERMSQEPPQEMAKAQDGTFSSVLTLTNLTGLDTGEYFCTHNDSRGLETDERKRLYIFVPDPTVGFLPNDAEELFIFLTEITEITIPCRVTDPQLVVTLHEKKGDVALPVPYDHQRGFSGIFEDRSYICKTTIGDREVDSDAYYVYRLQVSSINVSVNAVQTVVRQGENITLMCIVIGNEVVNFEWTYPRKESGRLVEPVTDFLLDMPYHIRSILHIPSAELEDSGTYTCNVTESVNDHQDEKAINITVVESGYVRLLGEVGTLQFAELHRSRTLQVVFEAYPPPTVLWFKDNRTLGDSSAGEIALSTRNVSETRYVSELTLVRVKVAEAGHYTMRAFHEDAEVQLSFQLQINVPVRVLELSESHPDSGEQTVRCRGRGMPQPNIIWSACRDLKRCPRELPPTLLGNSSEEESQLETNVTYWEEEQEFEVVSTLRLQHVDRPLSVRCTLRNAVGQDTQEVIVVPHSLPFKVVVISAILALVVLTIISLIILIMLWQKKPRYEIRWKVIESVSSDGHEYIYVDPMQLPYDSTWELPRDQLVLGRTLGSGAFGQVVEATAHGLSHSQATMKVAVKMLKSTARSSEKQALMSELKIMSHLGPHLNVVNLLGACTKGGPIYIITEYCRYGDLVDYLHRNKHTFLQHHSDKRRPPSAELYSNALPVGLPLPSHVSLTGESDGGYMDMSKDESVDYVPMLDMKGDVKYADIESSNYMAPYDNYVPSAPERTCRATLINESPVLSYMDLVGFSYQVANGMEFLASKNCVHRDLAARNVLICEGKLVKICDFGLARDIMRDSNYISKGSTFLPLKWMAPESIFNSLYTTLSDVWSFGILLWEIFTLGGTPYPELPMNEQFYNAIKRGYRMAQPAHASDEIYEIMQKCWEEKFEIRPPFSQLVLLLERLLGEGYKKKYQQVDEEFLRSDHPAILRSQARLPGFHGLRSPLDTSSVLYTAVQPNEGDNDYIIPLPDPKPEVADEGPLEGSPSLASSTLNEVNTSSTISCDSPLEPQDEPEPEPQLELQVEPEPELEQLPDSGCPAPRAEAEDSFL

H1299 cells [5] = experiment: Amine-reactive fluorescent dye (LIVE/DEAD) flow cytometry; format: cell-based
Protocol: Cell death was also determined using the LIVE/DEAD fixable dead cell stain kit as per manufacturer's instructions (Life Technologies, L-23101). This assay employs an amine-reactive fluorescent dye, which in compromised membranes the dye reacts with free amines on the cell interior in dead cells. H1299 cells were treated with DMH2 for 48 hours and the percentage of dead cells then detected by flow cytometry.

alk2 = target: T2, alk2 (Mus musculus, UniProt P37172); conditions: reported [26]; cited from earlier work
T2 construct: host or cells: C2C12
T2 sequence (P37172 21-509): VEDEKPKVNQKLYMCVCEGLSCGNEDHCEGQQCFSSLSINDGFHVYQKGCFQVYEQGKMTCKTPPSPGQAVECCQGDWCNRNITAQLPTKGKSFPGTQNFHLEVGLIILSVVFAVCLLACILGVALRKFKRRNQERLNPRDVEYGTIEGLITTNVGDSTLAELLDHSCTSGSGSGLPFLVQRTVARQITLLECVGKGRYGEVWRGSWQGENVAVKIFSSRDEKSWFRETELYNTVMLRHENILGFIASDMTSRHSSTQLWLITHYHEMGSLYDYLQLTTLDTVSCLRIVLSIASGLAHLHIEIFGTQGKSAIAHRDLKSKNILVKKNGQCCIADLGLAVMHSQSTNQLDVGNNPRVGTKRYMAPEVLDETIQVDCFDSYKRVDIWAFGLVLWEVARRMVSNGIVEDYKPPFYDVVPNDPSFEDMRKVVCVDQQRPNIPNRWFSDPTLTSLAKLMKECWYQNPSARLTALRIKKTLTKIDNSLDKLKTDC

VEGF II = VEGF II (Homo sapiens, UniProt P35968); conditions: compared with Dorsomorphin and LDN; cited from earlier work
Sequence of VEGF II (P35968 20-1356): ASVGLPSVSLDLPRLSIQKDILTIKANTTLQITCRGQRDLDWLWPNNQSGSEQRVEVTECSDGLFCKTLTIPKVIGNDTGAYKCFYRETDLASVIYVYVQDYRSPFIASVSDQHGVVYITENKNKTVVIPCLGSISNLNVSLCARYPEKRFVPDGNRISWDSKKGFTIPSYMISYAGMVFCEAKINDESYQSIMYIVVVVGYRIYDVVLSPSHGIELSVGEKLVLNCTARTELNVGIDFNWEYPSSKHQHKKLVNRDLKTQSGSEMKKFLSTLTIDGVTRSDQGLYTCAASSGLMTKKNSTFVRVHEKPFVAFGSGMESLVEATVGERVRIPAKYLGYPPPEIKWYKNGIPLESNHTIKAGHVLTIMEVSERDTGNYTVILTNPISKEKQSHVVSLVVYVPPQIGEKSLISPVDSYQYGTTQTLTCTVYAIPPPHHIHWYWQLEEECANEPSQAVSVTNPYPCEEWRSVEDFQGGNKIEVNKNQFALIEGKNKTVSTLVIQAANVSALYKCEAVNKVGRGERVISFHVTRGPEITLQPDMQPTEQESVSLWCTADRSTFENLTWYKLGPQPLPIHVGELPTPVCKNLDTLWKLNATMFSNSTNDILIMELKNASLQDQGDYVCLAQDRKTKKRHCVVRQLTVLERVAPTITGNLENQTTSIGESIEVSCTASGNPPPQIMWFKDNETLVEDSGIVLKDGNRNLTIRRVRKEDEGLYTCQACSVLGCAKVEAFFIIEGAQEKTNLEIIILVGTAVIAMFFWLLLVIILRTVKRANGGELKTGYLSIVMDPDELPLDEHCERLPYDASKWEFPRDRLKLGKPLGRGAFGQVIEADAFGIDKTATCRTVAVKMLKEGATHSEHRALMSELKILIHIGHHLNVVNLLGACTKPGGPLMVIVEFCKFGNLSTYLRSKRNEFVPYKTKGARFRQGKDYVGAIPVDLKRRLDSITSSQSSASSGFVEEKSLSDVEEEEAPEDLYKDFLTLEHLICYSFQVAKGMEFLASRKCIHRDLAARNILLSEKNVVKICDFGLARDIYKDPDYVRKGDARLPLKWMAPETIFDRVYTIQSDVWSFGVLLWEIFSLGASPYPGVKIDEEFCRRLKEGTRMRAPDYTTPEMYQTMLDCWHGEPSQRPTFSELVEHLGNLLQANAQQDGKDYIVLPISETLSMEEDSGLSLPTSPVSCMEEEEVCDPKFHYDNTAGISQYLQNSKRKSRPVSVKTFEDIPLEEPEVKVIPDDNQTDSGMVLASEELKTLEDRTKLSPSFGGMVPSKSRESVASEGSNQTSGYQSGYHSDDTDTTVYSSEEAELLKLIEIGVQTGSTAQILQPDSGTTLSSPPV

H1299 cells [6] = experiment: Trypan blue cell death counts; format: cell-based; conditions: 4 days

CN(C)CCCOc1ccc(-c2cnc3c(-c4ccnc5ccccc45)cnn3c2)cc1 [DMH2]
protein levels of Id1 and Id3 (Id1 and Id3 protein; A549 and H1299 cells): decrease
reduction of Id1 protein expression (comparison) (Id1 and Id3 protein; H1299 and A549 cells, 1 μM): greater reduction of Id1 in H1299 cells compared to A549 cells; also recorded: greater reduction of Id1 protein expression than DMH1
inhibition of ca-alk6 activity (BRE-luciferase) [1]: more inhibition of alk6 than DMH1 and LDN
activity for TGFβ receptor alk5 (comparison) (TGFβ receptor alk5): less activity
cell growth (number of cells) (A549 cells): significantly more growth inhibition than DMH1
cell growth (number of cells) (H1299 cells [2]; H1299, DMEM 5% FCS, 10 μM Dorsomorphin or 1 μM DMH1, DMH2, LDN): significantly more growth inhibition than DMH1
cell growth (number of cells) (H1299 cells [2]; H1299 cultured in SFM, 1 μM): significant inhibition of cell growth
Id1, Id2, and Id3 expression (mRNA) [3]: significantly decreased
activity for platelet-derived growth factor receptor-β (comparison) [4]: less activity
cell death (amine-reactive fluorescent dye) (H1299 cells [5]): induced cell death
inhibition of alk2 activity (alk2): inhibit
activity for VEGF II (comparison) (VEGF II): less activity
percentage of dead cells (trypan blue) (H1299 cells [6]; H1299 cultured in SFM, 1 μM, compared with DMEM 5% FCS): even higher
cell death (percentage of dead cells, trypan blue) (H1299 cells [6]; H1299 in DMEM 5% FCS, 1 μM and 5 μM): significant increased in cell death, which was dose dependent

Source: patent US9505763B2, “Cancer treatment using BMP inhibitor” (Vanderbilt University, priority 2011, dated 2016)
